Experimental data: EP3478687B1 (Daewoong Pharmaceutical Co., Ltd., priority 2016, dated 2018)

Key:
[1] = target: T1, Recombinant purified human BTK (Homo sapiens, UniProt Q06187); assay: BTK kinase inhibitory activity, ADP-Glo kinase assay (Promega V9071); assay type: biochemical; conditions: ATP 10 uM, 8 ng BTK per reaction, 1 hour 30 °C, chemiluminescence
T1 construct: purchased Promega V9071
How it was run: (§1)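 Recombinant human kinases in Tris pH 7.5 buffer with MgCl2, BSA and DTT (MnCl2 added for BTK), 4 ng JAK3 or 8 ng BTK per reaction. Poly(Glu4,Tyr1) 0.2 µg/µL with 5 µM (JAK3) or 10 µM (BTK) ATP, 1% DMSO, 1 h at 30 °C. ADP-Glo luminescence used to derive IC50.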

[2] = target: T2, Recombinant purified human JAK3 (Homo sapiens, UniProt P52333); assay: JAK3 kinase inhibitory activity, ADP-Glo kinase assay (Promega V9441); assay type: biochemical; conditions: ATP 5 uM, 4 ng JAK3 per reaction, 1 hour 30 °C, chemiluminescence
T2 construct: purchased Promega V9441
T2 sequence (P52333 1-1124): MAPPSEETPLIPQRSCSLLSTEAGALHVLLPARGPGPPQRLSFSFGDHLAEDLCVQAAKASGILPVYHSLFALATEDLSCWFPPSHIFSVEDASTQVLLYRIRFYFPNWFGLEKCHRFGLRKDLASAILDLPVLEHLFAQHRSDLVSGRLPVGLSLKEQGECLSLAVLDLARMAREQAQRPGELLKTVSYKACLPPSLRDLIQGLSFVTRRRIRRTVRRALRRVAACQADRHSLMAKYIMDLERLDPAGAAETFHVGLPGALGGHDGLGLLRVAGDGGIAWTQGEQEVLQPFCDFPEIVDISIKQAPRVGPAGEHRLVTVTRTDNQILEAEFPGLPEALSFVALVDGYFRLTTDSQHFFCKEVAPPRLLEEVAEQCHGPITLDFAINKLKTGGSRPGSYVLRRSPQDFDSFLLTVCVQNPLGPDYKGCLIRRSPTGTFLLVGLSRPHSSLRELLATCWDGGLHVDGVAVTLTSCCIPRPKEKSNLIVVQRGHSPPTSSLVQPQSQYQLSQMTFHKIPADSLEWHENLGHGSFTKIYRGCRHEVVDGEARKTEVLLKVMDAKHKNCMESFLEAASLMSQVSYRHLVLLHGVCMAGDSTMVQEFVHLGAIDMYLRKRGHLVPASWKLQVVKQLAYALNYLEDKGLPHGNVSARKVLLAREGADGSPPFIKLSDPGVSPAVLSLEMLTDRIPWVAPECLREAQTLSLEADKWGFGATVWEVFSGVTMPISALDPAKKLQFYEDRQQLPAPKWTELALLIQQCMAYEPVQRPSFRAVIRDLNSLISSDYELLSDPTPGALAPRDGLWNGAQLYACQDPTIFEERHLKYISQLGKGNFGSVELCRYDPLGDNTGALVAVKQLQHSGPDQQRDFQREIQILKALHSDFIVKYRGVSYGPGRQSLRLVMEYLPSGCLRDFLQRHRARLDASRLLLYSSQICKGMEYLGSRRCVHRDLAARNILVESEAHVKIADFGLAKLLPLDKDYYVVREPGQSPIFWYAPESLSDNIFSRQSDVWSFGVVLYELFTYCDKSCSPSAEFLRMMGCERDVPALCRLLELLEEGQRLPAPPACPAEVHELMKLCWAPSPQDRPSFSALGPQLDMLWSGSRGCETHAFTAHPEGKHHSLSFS
How it was run: as §1

T1 sequence (Q06187 whole entry): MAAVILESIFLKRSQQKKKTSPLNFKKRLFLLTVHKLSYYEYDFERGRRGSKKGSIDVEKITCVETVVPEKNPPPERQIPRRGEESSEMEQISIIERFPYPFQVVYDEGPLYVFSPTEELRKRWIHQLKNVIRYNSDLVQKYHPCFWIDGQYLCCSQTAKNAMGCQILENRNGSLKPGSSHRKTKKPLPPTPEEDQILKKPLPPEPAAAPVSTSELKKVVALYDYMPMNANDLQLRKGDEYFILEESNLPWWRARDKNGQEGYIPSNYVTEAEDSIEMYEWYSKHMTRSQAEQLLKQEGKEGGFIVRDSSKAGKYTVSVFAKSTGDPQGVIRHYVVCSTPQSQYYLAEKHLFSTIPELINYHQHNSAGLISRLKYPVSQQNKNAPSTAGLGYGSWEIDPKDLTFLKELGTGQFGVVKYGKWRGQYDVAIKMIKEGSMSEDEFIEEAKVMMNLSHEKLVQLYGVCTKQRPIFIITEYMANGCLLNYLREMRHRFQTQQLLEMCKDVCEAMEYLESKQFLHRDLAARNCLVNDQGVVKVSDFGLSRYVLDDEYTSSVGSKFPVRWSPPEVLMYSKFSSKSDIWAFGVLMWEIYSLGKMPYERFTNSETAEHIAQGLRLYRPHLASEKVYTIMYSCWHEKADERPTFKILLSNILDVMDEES

Compound | IC50 [1] [nM] | IC50 [2] [nM]
CCn1cc(Nc2nc(S[C@@H]3CCCN(C(=O)/C(C#N)=C/C(C)C)C3)c3cc[nH]c3n2)cn1 [Example 174, (R,E)-2-(3-((2-((1-ethyl-1H-pyrazol-4-yl)amino)-7H-pyrrolo[2,3-d]pyrimidin-4-yl)thio)piperidine-1-carbonyl)-4-methylpent-2-enenitrile] | 2 | 0.7
CCn1cc(Nc2nc(N[C@@H]3CCCN(C(=O)/C(C#N)=C/C4CC4)C3)c3cn[nH]c3n2)cn1 [Example 175, (R,E)-3-cyclopropyl-2-(3-((6-((1-ethyl-1H-pyrazol-4-yl)amino)-1H-pyrazolo[3,4-d]pyrimidin-4-yl)amino)piperidine-1-carbonyl)acrylonitrile] | 1.4 | 14.9
CCn1cc(Nc2nc(S[C@@H]3CCCN(C(=O)/C(C#N)=C/C4CC4)C3)c3cn[nH]c3n2)cn1 [Example 176, (R,E)-3-cyclopropyl-2-(3-((6-((1-ethyl-1H-pyrazol-4-yl)amino)-1H-pyrazolo[3,4-d]pyrimidin-4-yl)thio)piperidine-1-carbonyl)acrylonitrile] | 3 | 42.1
CCn1cc(Nc2nc(N[C@@H]3CCCN(C(=O)/C(C#N)=C/C4CC4)C3)c3c(Cl)c[nH]c3n2)cn1 [Example 177, (R,E)-2-(3-((5-chloro-2-((1-ethyl-1H-pyrazol-4-yl)amino)-7H-pyrrolo[2,3-d]pyrimidin-4-yl)amino)piperidine-1-carbonyl)-3-cyclopropylacrylonitrile] | 1.2 | 0.4
CCn1cc(Nc2nc(N[C@@H]3CCCN(C(=O)/C(C#N)=C/C(C)C)C3)c3c(Cl)c[nH]c3n2)cn1 [Example 178, (R,E)-2-(3-((5-chloro-2-((1-ethyl-1H-pyrazol-4-yl)amino)-7H-pyrrolo[2,3-d]pyrimidin-4-yl)amino)piperidine-1-carbonyl)-4-methylpent-2-enenitrile] | 0.9 | 0.5
C=CC(=O)N1CCC[C@@H](Nc2nc(Nc3cnn(CC(F)F)c3)nc3[nH]nc(C)c23)C1 [Example 184, (R)-1-(3-((6-((1-(2,2-difluoroethyl)-1H-pyrazol-4-yl)amino)-3-methyl-1H-pyrazolo[3,4-d]pyrimidin-4-yl)amino)piperidin-1-yl)prop-2-en-1-one] | 1.4 | 4.4
C=CC(=O)N1CCC[C@@H](Nc2nc(Nc3cnn(CC(C)C)c3)nc3[nH]nc(C)c23)C1 [Example 186, (R)-1-(3-((6-((1-isobutyl-1H-pyrazol-4-yl)amino)-3-methyl-1H-pyrazolo [3,4-d]pyrimidin-4-yl)amino)piperidin-1-yl)prop-2-en-1-one] | 1.6 | 18
C=CC(=O)N1CCC[C@@H](Nc2nc(Nc3cnn(C4CC4)c3)nc3[nH]nc(C)c23)C1 [Example 188, (R)-1-(3-((6-((1-cyclopropyl-1H-pyrazol-4-yl)amino)-3-methyl-1H-pyrazolo[3,4-d]pyrimidin-4-yl)amino)piperidin-1-yl)prop-2-en-1-one] | 2.9 | 23.5
C=CC(=O)N1CCC[C@@H](Nc2nc(Nc3cnn(CC(F)F)c3)nc3[nH]nc(SC)c23)C1 [Example 190, (R)-1-(3-((6-((1-(2,2-difluoroethyl)-1H-pyrazol-4-yl)amino)-3-(methylthio)-1H-pyrazolo[3,4-d]pyrimidin-4-yl)amino)piperidin-1-yl)prop-2-en-1-one] | 0.76 | 2
C=CC(=O)N1CCC[C@@H](Nc2nc(Nc3cnn(C)c3)nc3[nH]nc(SC)c23)C1 [Example 191, (R)-1-(3-((6-((1-methyl-1H-pyrazol-4-yl)amino)-3-(methylthio)-1H-pyrazolo [3,4-d]pyrimidin-4-yl)amino)piperidin-1-yl)prop-2-en-1-one] | 0.76 | 4.2
C=CC(=O)N1CCC[C@@H](Nc2nc(Nc3cnn(C(C)(C)C)c3)nc3[nH]nc(SC)c23)C1 [Example 192, (R)-1-(3-((6-((1-(tert-butyl)-1H-pyrazol-4-yl)amino)-3-(methylthio)-1H-pyrazolo [3,4-d]pyrimidin-4-yl)amino)piperidin-1-yl)prop-2-en-1-one] | 0.726 | 3
C=CC(=O)N1CC[C@@H](F)[C@@H](Nc2nc(Nc3cnn(CC)c3)nc3[nH]nc(Cl)c23)C1 [Example 193, 1-((3S,4R)-3-((3-chloro-6-((1-ethyl-1H-pyrazol-4-yl)amino)-1H-pyrazolo[3,4-d]pyrimidin-4-yl)amino)-4-fluoropiperidin-1-yl)prop-2-en-1-one] | 0.9 | 0.5

Other lines, results leading:

IC50 [1] [nM] | IC50 [2] [nM] | Compound
1.6 | 0.9 | CCn1cc(Nc2nc(N[C@@H]3CCCN(C(=O)/C(C#N)=C/C(C)C)C3)c3cc[nH]c3n2)cn1 [Example 172, (R,E)-2-(3-((2-((1-ethyl-1H-pyrazol-4-yl)amino)-7H-pyrrolo[2,3-d]pyrimidin-4-yl)amino)piperidine-1-carbonyl)-4-methylpent-2-enenitrile]
6 | 1 | CCn1cc(Nc2nc(S[C@@H]3CCCN(C(=O)/C(C#N)=C/C4CC4)C3)c3cc[nH]c3n2)cn1 [Example 173, (R,E)-3-cyclopropyl-2-(3-((2-((1-ethyl-1H-pyrazol-4-yl)amino)-7H-pyrrolo[2,3-d]pyrimidin-4-yl)thio)piperidine-1-carbonyl)acrylonitrile]
8.3 | 1.1 | CCn1cc(Nc2nc(S[C@@H]3CCCN(C(=O)/C(C#N)=C/C4CC4)C3)c3c(Cl)c[nH]c3n2)cn1 [Example 179]
3.1 | 1.5 | CCn1cc(Nc2nc(S[C@@H]3CCCN(C(=O)/C(C#N)=C/C(C)C)C3)c3c(Cl)c[nH]c3n2)cn1 [Example 180, (R,E)-2-(3-((5-chloro-2-((1-ethyl-1H-pyrazol-4-yl)amino)-7H-pyrrolo[2,3-d]pyrimidin-4-yl)thio)piperidine-1-carbonyl)-4-methylpent-2-enenitrile]
2.2 | 30.2 | CCn1cc(Nc2nc(S[C@@H]3CCCN(C(=O)/C(C#N)=C/C4CC4)C3)c3c(Cl)n[nH]c3n2)cn1 [Example 181]
2.1 | 2.3 | CCn1cc(Nc2nc(N[C@@H]3CCCN(C(=O)/C(C#N)=C/C4CC4)C3)c3c(F)c[nH]c3n2)cn1 [Example 182]
1.6 | 0.8 | CCn1cc(Nc2nc(N[C@H]3CN(C(=O)CCl)CC[C@H]3C)c3c(Cl)n[nH]c3n2)cn1 [Example 183, 2-chloro-1-((3R,4R)-3-((3-chloro-6-((1-ethyl-1H-pyrazol-4-yl)amino)-1H-pyrazolo [3,4-d]pyrimidin-4-yl)amino)-4-methylpiperidin-1-yl)ethan-1-one]
2.1 | 15.1 | C=CC(=O)N1CCC[C@@H](Nc2nc(Nc3cnn(CC)c3)nc3[nH]nc(C)c23)C1 [Example 185, (R)-1-(3-((6-((1-ethyl-1H-pyrazol-4-yl)amino)-3-methyl-1H-pyrazolo [3,4-d]pyrimidin-4-yl)amino)piperidin-1-yl)prop-2-en-1-one]
1.8 | 14.6 | C=CC(=O)N1CCC[C@@H](Nc2nc(Nc3cnn(C(C)(C)C)c3)nc3[nH]nc(C)c23)C1 [Example 187, (R)-1-(3-((6-((1-(tert-butyl)-1H-pyrazol-4-yl)amino)-3-methyl-1H-pyrazolo [3,4-d]pyrimidin-4-yl)amino)piperidin-1-yl)prop-2-en-1-one]
0.721 | 3.4 | C=CC(=O)N1CCC[C@@H](Nc2nc(Nc3cnn(CC)c3)nc3[nH]nc(SC)c23)C1 [Example 189, (R)-1-(3-((6-((1-ethyl-1H-pyrazol-4-yl)amino)-3-(methylthio)-1H-pyrazolo [3,4-d]pyrimidin-4-yl)amino)piperidin-1-yl)prop-2-en-1-one]
